# Measured values reported in patent US20100184675A1, “USE OF GLUCAGON (1-29) ALONE OR IN COMBINATION WITH NEUROPEPTIDE W30 AS A THERAPEUTIC AGENT” (priority 2007, published 2010).
# Ends that are not written are not given here.
# Tests used:
# [1] = test system: HIV-1IIIB; assay: HIV-1 antiviral assay in CEM-SS cells; settings: peptides 10 micrograms per ml, 6 days post-infection
# [2] = test system: hepatitis B virus (HBV) ayw strain; assay: HBV experimental assay system (HepG2-2.2.15, secreted HBV DNA by TaqMan PCR); type: cell-based; settings: 10 micrograms per ml; 6 days; combination 0.95 mole peptide 1 and 1.05 mole peptide 2
# Procedure: HepG2-2.2.15 cells were plated in 96-well microtiter plates. After 16-24 hours the confluent monolayer of HepG2-2.2.15 cells was washed and the medium was replaced with complete medium containing test peptides—10 micrograms per ml—in duplicate. Lamivudine (3TC) was used as the positive control, while media alone was added to the cells as a negative control (virus control). Three days later the culture medium was replaced with fresh medium containing the peptides. Six days following the initial administration of the peptides, the cell culture supernatants was collected, treated with pronase and DNAse and then used in a real-time quantitative TaqMan PCR assay. The PCR-amplified HBV DNA was detected in real-time by monitoring increases in fluorescence signals that result from the exonucleolytic degradation of a quenched fluorescence probe molecule that hybridizes to the amplified HBV DNA. For each PCR amplification, a standard curve was simultaneously generated using dilutions of purified HBV DNA. Antiviral activity was calculated from the reduction in HBV DNA levels (% virus control). A novel dye uptake assay was then employed to measure cell viability, which is used to calculate toxicity (% cell control).
# [3] = test system: murine spleen cells; assay: Th1/Th2 cytokine profiling assay (Ovalbumin-restimulated spleen cells); type: cell-based, Balb/c mice; settings: 10 micrograms per ml; 72 hours; combination 0.95 mole peptide 1 and 1.05 mole peptide 2
# Procedure: On day 50, spleens of the mice were harvested (3 weeks after last boost with Ovalbumin). Cells were cultured (2×10^5/well in triplicate) and incubated with culture medium or test peptides—10 micrograms per ml—for 30 min. Thereafter, additional Ovalbumin was added to the cells at 10 micrograms/ml for in vitro restimulation of the cells. 72 hours later, cell supernatants were harvested and assayed using the Becton Dickinson Mouse Th1/Th2 Cytokine CBA Kit.
# [4] = test system: Primary Human endothelial cells (HUVEC); assay: Endothelial cell migration assay; type: cell-based; settings: 10 micrograms per ml; 22 hours
# [5] = test system: HUVEC; assay: Endothelial tube formation assay; type: cell-based, human; settings: 10 micrograms per ml; 20 hours
# Procedure: The endothelial tube formation assay is based on the ability of endothelial cells to form three-dimensional capillary-like tubular structures when cultured on a gel of basement membrane extract. […] Pre-labeled HUVEC with Calcein AM were seeded in a 96-well culture plate coated with extracellular metrix (Chemicon international Cat. […] Positive control was vehicle only. […] Duplicate wells for each treatment were photographed and quantitatevily analyzed for an average tubule length using image analysis software ImageProPlus. Raw data were expressed as average tubule lengths in pixels ±standard deviation. Statistic p values were computed using the Student's t-test.
# [6] = test system: HCMV strain AD169; assay: HCMV plaque formation assay in MRC-5 cells; settings: peptides 10 micrograms per ml, 7-10 days
compound,measurement,setting,value
CC(C)(C)NC(=O)[C@@H]1CN(Cc2cccnc2)CCN1C[C@@H](O)C[C@@H](Cc1ccccc1)C(=O)N[C@H]1c2ccccc2C[C@H]1O [indinavir],inhibition of HIV-1 activity on tested T-cells,[1],expected levels of antiviral activity
Trp-Tyr-Lys-His-Val-Ala-Ser-Pro-Arg-Tyr-His-Thr-Val-Gly-Arg-Ala-Ala-Gly-Leu-Leu-Met-Gly-Leu-Arg-Arg-Ser-Pro-Tyr-Leu-Trp-OH (WYKHVASPRYHTVGRAAGLLMGLRRSPYLW-OH) [Peptide 2],inhibition of HBV replication as compared to the virus control infection,[2],10.7%
same,change of the production of IFN-γ (figure = decreased by),[3],25.5%
same,change of the production of IL-2 (figures = increased by),[3],82.1%
same,change of the production of IL-4 (figure = induced by),[3],did not significantly change
same,change of the production of IL-5 (figures = decreased by),[3],29.3%
same,change of the production of TNF-alpha,[3],did not significantly change
same,inhibition of the migration of human endothelial cells,[4],17%
same,inhibition of the tube formation of human endothelial cells,[5],16%
same,inhibition of HCMV plaque formation as compared to the virus control,[6],did not inhibit
"Nc1nc(O)c2ncn(COC(CO)CO)c2n1 [Ganciclovir, reference compound]",inhibition of HCMV plaque formation as compared to the virus control,[6],expected levels of antiviral activity
Cc1cn([C@H]2C[C@H](N=[N+]=[N-])[C@@H](CO)O2)c(=O)[nH]c1=O [AZT],inhibition of HIV-1 activity on tested T-cells,[1],expected levels of antiviral activity
